Assay results as given in US7037644B1, “Means and methods for monitoring non-nucleoside reverse transcriptase inhibitor antiretroviral therapy and guiding therapeutic decisions in the treatment of HIV/AIDS” (ViroLogic, Inc., priority 1998, dated 2006).

How the values were obtained:
[1] = tested on: HIV reverse transcriptase with mutations at codon 230 (leucine) and 181 (cysteine); assay: Phenotypic susceptibility assay; type: cell-based; settings: mutations at codons 230 and 181
Text: In another specific embodiment, the invention provides for a method of evaluating the effectiveness of NNRTI antiretroviral therapy of a patient comprising (i) collecting a biological sample from an HIV-infected patient; and (ii) determining whether the biological sample comprises nucleic acid encoding HIV RT having a mutation at codon(s) 230 and/or 181. […] In another specific embodiment, the invention provides for a method of evaluating the effectiveness of NNRTI antiretroviral therapy of a patient comprising (i) collecting a biological sample from an HIV-infected patient; and (ii) determining whether the biological sample comprises nucleic acid encoding HIV RT having a mutation at codon 181. […] In another specific embodiment, the invention provides for a method of evaluating the effectiveness of NNRTI antiretroviral therapy of a patient comprising (i) collecting a biological sample from an HIV-infected patient; and (ii) determining whether the biological sample comprises nucleic acid encoding HIV RT having a mutation at codon 188. […]

[2] = tested on: RTV-1058 clone 5 (RT L100I, K103N); assay: Phenotypic susceptibility assay (patient RTV clone); type: cell-based, HIV-1
Text: (§1) The resistance test vectors containing a functional luciferase gene cassette were constructed and host cells were transfected with the resistance test vector DNA. The resistant test vectors contained patient-derived reverse transcriptase and protease sequences that were either susceptible or resistant to the antiretroviral agents, such as nucleoside reverse transcriptase inhibitors, non-nucleoside reverse transcriptase inhibitors and protease inhibitors. The resistance test vector viral particles produced by transfecting the resistance test vector DNA into host cells, either in the presence or absence of protease inhibitors, were used to infect target host cells grown either in the absence of NRTI or NNRTI or in the presence of increasing concentrations of the drug. The amount of luciferase activity produced in infected target host cells in the presence of drug was compared to the amount of luciferase produced in infected target host cells in the absence of drug. Drug resistance was measured as the amount of drug required to inhibit by 50% the luciferase activity detected in the absence of drug (inhibitory concentration 50%, IC50). The IC50 values were determined by plotting percent drug inhibition vs. log10 drug concentration.
(§2) Host cells were seeded in 10-cm-diameter dishes and were transfected several days after plating with resistance test vector plasmid DNA and the envelope expression vector. Transfections were performed using a calcium-phosphate precipitation procedure. The cell culture media containing the DNA precipitate was replaced with fresh medium, from one to 24 hours, after transfection. Cell culture media containing resistance test vector viral particles was harvested one to four days after transfection and was passed through a […] filter before being stored at […]. HIV capsid protein (p24) levels in the harvested cell culture media were determined by an EIA method as described by the manufacturer (SIAC; Frederick, Md.). Before infection, target cells (293 and 293/T) were plated in cell culture media. Control infections were performed using cell culture media from mock transfections (no DNA) or transfections containing the resistance test vector plasmid DNA without the envelope expression plasmid. One to three or more days after infection the media was removed and cell lysis buffer (Promega) was added to each well. Cell lysates were assayed for luciferase activity (FIG. 3). The inhibitory effect of the drug was determined using the following equation: % luciferase inhibition=1−(RLUluc [drug]÷RLUluc)×100 where RLUluc [drug] is the relative light unit of luciferase activity in infected cells in the presence of drug and RLUluc is the Relative Light Unit of luciferase activity in infected cells in the absence of drug. IC50 values were obtained from the sigmoidal curves that were generated from the data by plotting the percent inhibition of luciferase activity vs. the log10 drug concentration. The drug inhibition curves are shown in (FIG. 3).
(§3) A resistance test vector was constructed as described in Example 1 from a patient sample designated 98-1058. This patient had been previously treated with ddI, d4T, AZT, 3TC, ddC and abacavir (NRTIs), indinavir and amprenavir (PRIs) and nevirapine (an NNRTI). Isolation of viral RNA and RT/PCR was used to generate a patient derived segment that comprised viral sequences coding for all of RP and aa 1-313 of RT. The PDS was inserted into an indicator gene viral vector to generate a resistance test vector designated RTV-1058. Individual clones of RTV-1058 were selected and were then tested in a phenotypic assay to determine accurately and quantitatively the level of susceptibility to a panel of anti-retroviral drugs. The panel of antiretroviral drugs comprised members of the classes known as NRTIs (AZT, 3TC, d4T, kkI an ddC), NNRTIs (delavirdine and nevirapine), an PRIs (indinavir, nelfinavir, ritonavir, and saquinavir). […]

[3] = tested on: RTV-1058 clone 4 (RT K103N); assay: as above; type: cell-based, HIV-1
Text: as §1, §2, §3

Compound | change in susceptibility [1] | loss of susceptibility (fold, IC50) [2] | loss of susceptibility (fold, IC50) [3]
CC(C)Nc1cccnc1N1CCN(C(=O)c2cc3cc(NS(C)(=O)=O)ccc3[nH]2)CC1 [delavirdine] | significant decrease | 250 fold | 85 fold
Cc1ccnc2c1NC(=O)c1cccnc1N2C1CC1 [nevirapine] | significant decrease | 120 fold | greater than 800 fold
